Test results reported in paper PMC2014744, “A novel p38α MAPK inhibitor suppresses brain proinflammatory cytokine up-regulation and attenuates synaptic dysfunction and behavioral deficits in an Alzheimer's disease mouse model” (Journal of Neuroinflammation, 2007).
Converted amounts (≈) assume the structure as drawn. “Also recorded” adds a separate entry of the source. One block for each compound: values may come before it.

Assays:
[1] = Stability in human liver microsomes; type: in vitro ADME; conditions: 5 μM compound; for metabolic stability in human liver microsomes compared with 069A (in words): Fig. 4D, 10 or 30 min incubation
Description: Briefly, triplicate reaction mixtures contained 0.1 M potassium phosphate buffer (pH 7.4) and a final concentration of the following components: 1 – 1.6 mg/ml total microsomal protein, 5 μM test compound, 1.3 mM NADPH, 3.3 mM MgCl2, 0.4 U/ml glucose-6-phosphate dehydrogenase, and 3.3 mM glucose-6-phosphate in a total volume of 300 μl. Mixtures were incubated at 37°C for 10 or 30 minutes. […] HPLC was performed as described above with 0.1% (v/v) formic acid in water as reagent A and acetonitrile with 0.1% (v/v) formic acid in water as reagent B. Peak quantification was done based upon absorption measurements at 260 nm relative to a standard curve obtained by serial dilutions of compounds.

[2] = target: T1, p38β (Homo sapiens, UniProt Q15759); experiment: Millipore/Upstate kinase profiling: p38β; type: biochemical; conditions: 20 μM compound
T1 construct: purchased Millipore (KinaseProfiler kinase screening service)
Description: (§3) Enzyme activity assays were done in a final volume of 50 μl and each point was tested in duplicate. […] When compounds were tested for kinase inhibitory activity, 10X stock solutions of compounds were prepared in DMSO or water, and control samples contained the same final concentration of solvent as the samples containing compound. Data are expressed as percent of the maximal enzyme activity, where enzyme activity in the absence of compound is taken as 100%. IC50 values were calculated by a nonlinear regression data analysis using Microsoft Excel. Selectivity against pathway or structurally related protein kinases was done using purified kinases and standard in vitro assays described previously [69, 70], and included use of the Millipore (Billerica, MA) kinase screening service at 20 μM final concentration of 069A and 90 μM final concentration of ATP.

[3] = target: T2, MKK4 (Mus musculus, UniProt P47809); experiment: Millipore/Upstate kinase profiling: MKK4; type: biochemical; conditions: 20 μM compound; 90 μM ATP; activity without inhibitor = 100%
T2 construct: purchased Millipore (KinaseProfiler kinase screening service)
T2 sequence (P47809 1-397): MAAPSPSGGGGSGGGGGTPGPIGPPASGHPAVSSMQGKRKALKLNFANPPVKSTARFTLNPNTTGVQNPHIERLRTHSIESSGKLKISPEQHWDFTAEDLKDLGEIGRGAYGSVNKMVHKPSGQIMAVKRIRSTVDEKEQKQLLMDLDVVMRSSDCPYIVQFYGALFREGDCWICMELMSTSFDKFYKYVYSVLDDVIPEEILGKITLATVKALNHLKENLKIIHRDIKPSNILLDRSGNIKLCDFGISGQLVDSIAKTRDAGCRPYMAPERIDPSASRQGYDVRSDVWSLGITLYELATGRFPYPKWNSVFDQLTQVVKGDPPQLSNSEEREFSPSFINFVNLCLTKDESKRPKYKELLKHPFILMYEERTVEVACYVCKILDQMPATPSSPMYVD

[4] = target: T3, MKK7β (Homo sapiens, UniProt O14733); experiment: Millipore/Upstate kinase profiling: MKK7β; type: biochemical; conditions: 20 μM compound; 90 μM ATP; activity without inhibitor = 100%
T3 construct: purchased Millipore (KinaseProfiler kinase screening service)
T3 sequence (O14733 1-419): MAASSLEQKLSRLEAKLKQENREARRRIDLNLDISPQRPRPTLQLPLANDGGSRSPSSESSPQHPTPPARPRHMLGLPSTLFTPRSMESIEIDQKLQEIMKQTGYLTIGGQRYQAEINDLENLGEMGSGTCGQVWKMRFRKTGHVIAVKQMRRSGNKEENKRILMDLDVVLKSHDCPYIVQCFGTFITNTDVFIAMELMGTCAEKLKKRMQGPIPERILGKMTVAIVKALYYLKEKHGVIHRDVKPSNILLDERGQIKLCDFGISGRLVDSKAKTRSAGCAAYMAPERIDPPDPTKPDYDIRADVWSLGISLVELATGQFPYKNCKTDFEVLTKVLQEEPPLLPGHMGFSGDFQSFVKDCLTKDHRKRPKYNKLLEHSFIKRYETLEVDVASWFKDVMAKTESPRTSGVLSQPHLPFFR

[5] = tested on: 44 other purified protein kinases; experiment: Millipore kinase screen, summary for the non-p38 kinases; type: biochemical; conditions: 20 μM compound, Table 1
Description: as §3

[6] = Aqueous solubility determination (log S); type: physicochemical; conditions: thermodynamic from solid, Milli-Q water, 22°C
Description: For aqueous solubility (log S) determination, compound 069A was weighed on a Sartorius AG (Goettingen, Germany) analytical balance, and Milli-Q water was added to create an oversaturated solution (suspension). Sample tubes were stirred for 24 hrs at ambient temperature (t = 22°C). 1 mL of the samples were centrifuged in a microfuge at 16,000 × g for 10 min, and 20 μL was subjected to reverse-phase HPLC analysis to determine the concentration of the compound (caq). The concentration of compound in the aqueous phase (caq) was determined by peak detection at 254 nm at the appropriate retention time relative to a standard curve obtained from serial dilutions of the compound. The log S was calculated as common logarithm (log10) of caq.

[7] = Lipophilicity determination (log P), shake-flask; type: physicochemical; conditions: 1-octanol/water shake-flask, 25°C
Description: The partition coefficient was determined by the shake-flask method. The starting solution (0.3 mg/mL) of analyzed compound was prepared in presaturated 1-octanol (Sigma-Aldrich, St. Louis, MO). 1 mL of the octanol phase was agitated on a plate shaker with 10 mL of presaturated Milli-Q water for 2 hrs at 25°C. After partitioning, 1 mL of the aqueous phase was centrifuged in a microfuge for 10 min at 16,000 × g. 20 μL of the sample were analyzed with reversed-phase HPLC as described above to determine the concentration of the aqueous phase (caq). The log P is calculated according to the formula: log P = log10 [(0.3 – caq)/caq].

[8] = Oral bioavailability: compound in plasma after oral gavage; type: in vivo, C57Bl/6 mice; conditions: mice, 2.5 mg/kg oral gavage; earliest time point analyzed
Description: (§1) Analysis of oral bioavailability (concentration of compound in the blood as a function of time after oral administration) and brain uptake was done by a modification of that previously described. Briefly, 069A (2.5 mg/kg) was administered to C57Bl/6 mice by oral gavage in a 0.5% (w/v) carboxymethylcellulose suspension. At 5, 15, 30, 60, and 120 min after compound administration, blood was collected in heparinized tubes from anesthetized animals and plasma obtained by centrifugation. After perfusion, brains were harvested, homogenized in 0.1% formic acid and deproteinized with ice-cold acetonitrile. After centrifugation to remove precipitated protein, the brain homogenate supernatants were further diluted with 0.1% formic acid. The plasma samples were acidified by diluting with 0.1% formic acid (1:3, v:v). Solid phase extraction followed by HPLC analysis was used to quantify the amount of compound in the plasma and brain supernatants, with compound MW01-6-189WH used as an internal standard. Briefly, 30 mg cartridges (Oasis® HLB, Waters) were conditioned with 1 mL of acetonitrile and equilibrated with 1 mL of water. Acidified samples were loaded onto the cartridge followed by a 1 mL wash with 5% acetonitrile. Compound was eluted from the cartridge using 100% acetonitrile. The eluate was evaporated to dryness, reconstituted in 60% acetonitrile/0.1% formic acid/water and analyzed by HPLC. […]

[9] = Brain uptake: compound in brain homogenate after oral gavage; type: in vivo, C57Bl/6 mice; conditions: mice, 2.5 mg/kg oral gavage; brain homogenate after perfusion
Description: as §1

[10] = tested on: C57Bl/6 mice; experiment: Liver toxicity screen (histology after two weeks of daily oral dosing); type: in vivo; conditions: 2.5 mg/kg oral gavage once daily for 2 weeks
Description: Screening for histological liver injury after chronic, therapeutic dose administration of compound was done as previously described. Briefly, C57Bl/6 mice were administered by oral gavage either […] (2.5 mg/kg) or solvent control (DMSO) in a 0.5% (w/v) carboxymethylcellulose suspension. Compound or vehicle administration was once daily for two weeks. Livers were then removed, fixed in 4% (v/v) paraformaldehyde, and paraffin-embedded for histology. To assess histological toxicity, 4 μm liver sections were stained with haematoxylin and eosin. Two independent observers blinded to the treatment groups performed microscopic assessment of the tissue for injury by using a semi-quantitative histological scoring system that considers architecture features (normal to extensive fibrosis), cellular features (normal to extensive edema and widespread necrosis), and degree of inflammatory infiltrate (normal to extensive infiltrate).

[11] = tested on: C57Bl/6 mice infused ICV with human oligomeric Aβ1–42; experiment: AD mouse model (ICV infusion of human oligomeric Aβ1–42): hippocampal protein levels by ELISA; type: in vivo; conditions: 2.5 mg/kg oral once daily for 2 weeks from day 21 after start of Aβ infusion; day 60
Description: (§2) The four-week intracerebroventricular (ICV) infusion of human oligomeric Aβ1-42 or Hepes/HDL vehicle into C57Bl/6 mice was done as previously described. Mice were administered by oral gavage either […] (2.5 mg/kg) or solvent control (DMSO) in a 0.5% (w/v) carboxymethylcellulose suspension. Compound administration began at day 21 after the start of Aβ infusion, and continued on a once daily administration schedule for 14 days. Beginning at day 50 after the start of Aβ infusion, the Y-maze test of spontaneous alternation was done once daily for 10 days to evaluate hippocampal-dependent spatial learning as described previously. At day 60, mice were anesthetized, perfused, and sacrificed as previously described. Hippocampal extract supernatants were prepared by dounce and sonication, followed by centrifugation as described previously. Levels of the proinflammatory cytokines IL-1β and TNFα in hippocampal supernatants were measured by ELISA (Biosource International) per the manufacturer's instructions. S100B and synaptophysin levels were measured by ELISA as previously described.

[12] = tested on: C57Bl/6 mice infused ICV with human oligomeric Aβ1–42; experiment: AD mouse model (ICV infusion of human oligomeric Aβ1–42): Y-maze spontaneous alternation; type: in vivo; conditions: 2.5 mg/kg oral once daily for 2 weeks from day 21; Y-maze days 50-60
Description: as §2

[13] = target: T4, p38α/SAPK2α (Homo sapiens, UniProt Q16539); experiment: In vitro p38α MAPK protein kinase assay (myelin basic protein phosphorylation, 32P-ATP); type: biochemical; conditions: Fig. 3B; for p38α MAPK inhibitory activity (in words): increasing concentrations of compound; for fold less active than 069A as p38α MAPK inhibitor: relative to 069A
T4 construct: purchased Millipore (Billerica, MA)
Description: Concentration-dependent inhibition of protein kinase activity was done essentially as previously described. Active p38α/SAPK2α enzyme was obtained from Millipore (Billerica, MA), and bovine myelin basic protein substrate was obtained from Sigma-Aldrich (St. Louis, MO). Enzyme activity assays were done in a final volume of 50 μl and each point was tested in duplicate. Assays were done by incubation with 0.33 mg/ml (18 μM) myelin basic protein, 100 μM ATP and γ-[^32P]ATP (specific activity > 300 cpm/pmol) in assay buffer (50 mM HEPES, pH 7.5, 5 mM MgCl2, 150 mM KCl, 15 mM NaCl, 1 mM DTT). Reactions were initiated by addition of the active p38α kinase at a final concentration of 2 μg/ml, and incubated for 10 min at 30°C. […] When compounds were tested for kinase inhibitory activity, 10X stock solutions of compounds were prepared in DMSO or water, and control samples contained the same final concentration of solvent as the samples containing compound. Data are expressed as percent of the maximal enzyme activity, where enzyme activity in the absence of compound is taken as 100%. IC50 values were calculated by a nonlinear regression data analysis using Microsoft Excel. Selectivity against pathway or structurally related protein kinases was done using purified kinases and standard in vitro assays described previously, and included use of the Millipore (Billerica, MA) kinase screening service at 20 μM final concentration of 069A and 90 μM final concentration of ATP.

[14] = cited from earlier work
[15] = tested on: p38α MAPK; conditions: background statement, no reference given; cited from earlier work

T4 sequence (Q16539 whole entry): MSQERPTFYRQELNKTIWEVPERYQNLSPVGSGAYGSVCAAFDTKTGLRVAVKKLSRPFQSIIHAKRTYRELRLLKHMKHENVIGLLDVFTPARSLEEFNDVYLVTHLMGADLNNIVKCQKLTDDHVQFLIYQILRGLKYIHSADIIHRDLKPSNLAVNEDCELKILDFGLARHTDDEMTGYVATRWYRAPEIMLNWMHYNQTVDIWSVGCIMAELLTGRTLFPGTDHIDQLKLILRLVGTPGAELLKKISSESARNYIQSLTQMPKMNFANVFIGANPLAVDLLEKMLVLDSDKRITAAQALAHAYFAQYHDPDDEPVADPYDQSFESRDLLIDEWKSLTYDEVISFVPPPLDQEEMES
T1 sequence (Q15759 whole entry): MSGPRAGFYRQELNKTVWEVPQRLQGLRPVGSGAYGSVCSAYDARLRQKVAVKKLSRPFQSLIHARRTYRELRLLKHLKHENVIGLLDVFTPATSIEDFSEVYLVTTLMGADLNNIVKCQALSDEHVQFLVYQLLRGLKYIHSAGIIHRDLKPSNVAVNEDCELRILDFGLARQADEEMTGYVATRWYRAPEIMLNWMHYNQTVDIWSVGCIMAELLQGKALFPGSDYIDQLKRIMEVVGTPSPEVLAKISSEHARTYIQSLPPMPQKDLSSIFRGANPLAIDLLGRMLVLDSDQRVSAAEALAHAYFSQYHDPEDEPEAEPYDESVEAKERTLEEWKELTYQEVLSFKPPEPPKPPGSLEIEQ

SMILES: Cc1cc(-c2ccccc2)nnc1NCCN1CCOCC1 [Minaprine]
metabolic stability in human liver microsomes compared with 069A (in words) [1]: it is more stable than the structurally related, clinical CNS drug Minaprine

SMILES: c1ccc(-c2nnc(N3CCN(c4ncccn4)CC3)cc2-c2ccncc2)cc1 [MW01-2-069A-SRM]
% kinase activity (p38β) ([2]; 90 μM ATP, activity without inhibitor = 100%): 30%
inhibition of p38β (in words) ([2]; Millipore screen): partial inhibition
% kinase activity (MKK4) [3]: 117%
% kinase activity (MKK7β) [4]: 103%
inhibition of 44 other purified protein kinases (in words) [5]: little or no inhibition
solubility at 24 h [6]: 9.54 µg/mL (≈ 24.1 µM)
logP at 2 h [7]: 3.18
time at which compound is detected in plasma after oral administration [8]: ≤ 5 min
time at which compound appears in brain after oral administration [9]: ≤ 5 min
time of peak brain concentration after oral administration [9]: 5 to 15 min
adverse clinical effects during treatment [10]: no adverse clinical effects
histological liver injury ([10]; compared with vehicle, 2.5 mg/kg): did not induce any histological indices of liver tissue injury; also recorded: no significant liver toxicity
compound remaining after incubation with human liver microsomes ([1]; 10 min incubation, 37°C): ~ 70%
Aβ-induced loss of synaptophysin in hippocampal extracts [11]: attenuates this loss of synaptophysin
Aβ-induced overproduction of IL-1β in hippocampal extracts [11]: significantly reduced
Aβ-induced overproduction of S100B in hippocampal extracts [11]: significantly reduced
Aβ-induced overproduction of TNFα in hippocampal extracts [11]: significantly reduced
Aβ-induced Y-maze behavioral deficit [12]: ameliorates the Y-maze behavioral deficit

SMILES: Cc1cc(-c2ccccc2)nnc1N1CCN(c2ncccn2)CC1 [Minozac]
metabolic stability in human liver microsomes compared with 069A (in words) [1]: 069A is not as metabolically stable as Minozac
blood-brain barrier penetrance [14]: good blood-brain barrier penetrance
p38α MAPK inhibition (in words) [15]: not an inhibitor

Further lines, with some results ahead:

fold less active than 069A as p38α MAPK inhibitor [13]: > 100 fold
SMILES: c1ccc(-c2cc(-c3ccncc3)c(N3CCN(c4ncccn4)CC3)nn2)cc1 [MW01-6-189WH]
p38α MAPK inhibitory activity (in words) [13]: does not generate MAPK inhibitory activity

p38α MAPK inhibitory activity (in words) [13]: major loss of activity
fold less active than 069A as p38α MAPK inhibitor [13]: > 100 fold
SMILES: c1ccc(-c2nnc(N3CCN(c4ncccn4)CC3)cc2-c2cccnc2)cc1 [MW01-4-119SRM, 3-phenyl-4-(pyridin-3-yl)-6-(4-(pyrimidin-2-yl)piperazin-1-yl)pyridazine]

p38α MAPK inhibitory activity (in words) [13]: lacks inhibitory activity
fold less active than 069A as p38α MAPK inhibitor [13]: > 100 fold
SMILES: c1ccc(-c2ccc(N3CCN(c4ncccn4)CC3)nn2)cc1 [MW01-3-183WH, 3-phenyl-6-(4-(pyrimidin-2-yl)piperazin-1-yl)pyridazine]
